We go through two compounds from patent US6338963B1, “Use of carbon monoxide dependent guanylyl cyclase modifiers to stimulate neuritogenesis” (NeoTherapeutics, Inc., priority 1994, dated 2002).

The test system of one experiment is TGFβ2. Briefly: Western blot of astrocyte cytosolic proteins: TGFβ2. Type of experiment: cell-based, rat. On the procedure: Western blot analysis of cytosolic proteins from cultured astrocytes was performed to detect the factors NGF and TGFβ2. The results are shown in FIG. 58A for NGF at 6 and 12 hours and in FIG. 58B for TGFβ2 at 6 and 12 hours.
Western blot analysis of cytosolic proteins deriving from cultured astrocytes treated for 6 or 12 hours with 100 μM AIT-082 was performed. AIT-082 is able to promote the production of neurotrophic factors from rat cultured astrocytes as measured by Western blot analysis. The results are shown in FIG. 62A for NGF and in FIG. 62B for TGFβ2. Electrophoresis was performed in 12% (for NBF) or 15% (for TGFβ2) SDS-PAGE (20 μg of total protein per lane). The separated proteins were transferred onto a PVDF membrane (Bio-Rad Laboratories, Italy).

Experiment [1] deals with cGMP levels in PC12 cells. The experiment is described as follows: cGMP levels in PC12 cells (radioimmunoassay). The experiment is classed as cell-based, rat. The conditions noted are these: NGF-primed PC12 cells. The procedure: Initially, PC-12 cells were primed with 40 ng/ml NGF for 3 days in low serum medium (1.5% horse serum+5% fetal calf serum). Cells were seeded onto assay plates in low serum medium containing 40 ng/ml NGF and incubated for 1 hour. The medium was changed to low arginine medium (80 μM) with no serum and NGF and papaverine ([…]) where indicated. Test compounds were added for the indicated time and the reaction was stopped by adding 5% TCA containing 10,000 dpm of ^3H-cGMP. cGMP was assayed by the radioimmunoassay method of Maurice (Mol. Pharmacol. 37: 671-681, 1990). TCA was purified by adding powdered charcoal (5 g) and filtering the mixture through Whatman #1 paper. This removed contaminants in the TCA that otherwise interfere with the radioimmunoassay (RIA) of cGMP.
It was necessary to purify the cGMP from cAMP and other contaminants before radioimmunoassay since these other materials can interfere with the assay. Briefly, the TCA solution was applied to Dowex columns (50W-8X, 200-400 mesh) and eluted. A neutral alumina column was then placed under each Dowex column. The cGMP was eluted from the Dowex columns into neutral alumina columns by adding 4 mL of 0.05 M HCl to each Dowex column. The neutral alumina columns were then sequentially rinsed with 2 ml of HCl, 4 mL water and finally with 0.2 M sodium acetate (pH 6.2). The cGMP collected for the RIA eluted in 1 ML of sodium acetate with a recovery between 50-65%. The cGMP was assayed using a Dupont RIA kit.

A further experiment concerns FGF-2 mRNA. Briefly: Northern/slot blot of neurotrophin mRNA from astrocytes: FGF-2. The experiment is classed as cell-based, NIH Swiss mice. On the set-up: key to FGF-2 mRNA: The conditions which produced a detectable amount of each of the neurotrophin mRNAs are indicated by a “+”; a “++” indicating that at least twice the detectable amount was present; Those blots which were negative are indicated by a “−”. The conditions noted are these: for FGF-2 mRNA: 24 hours. The procedure:
Induction of neurotrophin mRNA was determined by northern blot analysis of astrocytes cultured with AIT-082, NGF, or both. The cells were harvested and RNA extracted at 24 hours after treatment.
More particularly, astrocytes from the cerebral cortex of NIH Swiss mice (Harlan) were isolated. Briefly, newborn pups (0-24 hours) were decapitated. Their brains were removed under aseptic conditions and were placed in modified Dulbecco's medium (DMEM) containing 20% heat-inactivated horse serum (Hyclone) (“complete medium”). The neopallium was then dissected from each cerebral hemisphere and minced into 1 mm cubes.
The astrocytes were then isolated by mechanical dissociation. The cubes were vortexed at maximum speed for one minute. The cell suspension was then passed first through 75 mm Nitex then through 10 mm Nitex. The resulting cell suspension was diluted in complete medium to a final concentration of one brain per 10 ml of complete medium. Ten milliliters of the diluted cell suspension was added to each 100 mm Falcon tissue culture plate (Fisher). After 3 days the medium was replaced with 10 ml fresh complete medium and subsequently was replaced twice weekly with DMEM containing 10% heat inactivated horse serum (“growth medium”). After two weeks in culture the astrocytes formed a confluent monolayer.
For RNA extraction, astrocytes were trypsinized. The astrocytes were then replated onto 100 mm PORN coated plates at a cell density of 10^6 cells per plate (10 ml growth medium). After 2 hrs PBS, guanosine (Guo), or GTP at 10 mM were added to the appropriate plates. Total RNA was harvested from 1.5×10^7 cells for each treatment, 4 and 24 hrs after treatment using TRIzol reagent and supplier protocol (GIBCO BRL/Life Technologies, Inc.). For slot blots, total RNA was bound to Hybond-N filters (Amersham/United States Biochemicals) as described in Transfer and Immobilization of Nucleic Acids and Proteins to S & S Solid Supports (S and S Protocols: Schleicher & Schuell, New Hampshire, USA). Northern blots were also performed using […] total RNA from each sample. These were electrophoresed in 1% agarose gels containing formaldehyde and blotted onto Hybond-N filters according to S and S protocols.
The blots were probed with ^32P-labeled cDNA (NGF, NT-3 and BDNF probes) or oligonucleotide probe (FGF-2) by hybridization in Piperazine-N,N′-bis-(2-ethanesulfonic acid) (PIPES) buffer (50 mM PIPES, pH 6.8; 50 mM NaH2PO4; 0.1 M NaCl; 5% SDS and 1 mM EDTA) overnight at 50° C. […] Various concentrations ([…] of total RNA), as determined by spectrophotometry, of each sample were blotted and probed so that quantification could be done after insuring a linear film response. Quantification was performed using MCID Image Analysis (St. Catherine's, Ontario, Canada). […]

The test system of the next experiment is rat cultured astrocytes. The experiment is described as follows: Release of radioactively labeled adenine-based purines from rat cultured astrocytes. The experiment is classed as cell-based.

Consider `O=C(CCn1cnc2c(=O)[nH]cnc21)Nc1ccc(C(=O)O)cc1` [AIT-082, N-4-carboxyphenyl-3-(6-oxohydropurin-9-yl)propanamide], for which the “intracellular levels of TGFβ2” value with TGFβ2 (100 μM AIT-082, 6 or 12 hours) is given as “increased in time-dependent manner”. Besides, the “cGMP in PC12 cells” value in experiment [1] is given as “increased the production of cGMP”. The figures for the “FGF-2 mRNA” value in the experiment on FGF-2 mRNA (AIT-082 100 mM) and in the experiment on FGF-2 mRNA (AIT-082 + NGF (40 ng/ml)) were “++” and “+”, respectively. Also, the “outflow of radioactive adenine-based purines” value with rat cultured astrocytes (astrocytes exposed for one hour) is “dose-dependent increase”. Besides, the “release of adenosine and inosine” value with rat cultured astrocytes (first hour of the release) is “increased the release of adenosine and inosine in a dose-dependent fashion”. In addition, the “release of hypoxanthine and the adenine nucleotides ATP, ADP, or AMP” value in the experiment with rat cultured astrocytes (first hour of the release) is given as “without effecting the release”.

For the compound `Nc1nc2c(ncn2[C@@H]2O[C@H](CO)[C@@H](O)[C@H]2O)c(=O)[nH]1` [guanosine], the “intracellular content of TGFβ2” value with TGFβ2 (guanosine, 6 and 12 hours) is “increased the intracellular content of NGF and TGFβ2 in time-dependent fashion”. The “cGMP in PC12 cells” value in experiment [1] is “increased intracellular cGMP”. Also, in the experiment with FGF-2 mRNA (guanosine, 24 hours after addition), the “FGF-2 mRNA in astrocytes” value is “increased”. Moreover, in the experiment on rat cultured astrocytes (300 μM, 1 hour), the “ADP, radioactivity released in the culture medium” value stood at 0.84 ± 0.09 cpm × 10^3; the “AMP, proportional release” value was “(12.3 ± 1.7) percentage of the total [^3H]-purines released”; the “AMP, radioactivity released in the culture medium” value was found to be 1.58 ± 0.22 cpm × 10^3; the “ATP, proportional release” value is “(5.5 ± 0.7) percentage of the total [^3H]-purines released”. For the same compound, in the experiment on rat cultured astrocytes (300 μM, 1 hour), the “ATP, radioactivity released in the culture medium” value is recorded as 0.71 ± 0.09 cpm × 10^3; the “Adenosine, radioactivity released in the culture medium” value stood at 1.53 ± 0.10 cpm × 10^3; the “Hypoxanthine, proportional release” value was “(24.7 ± 1.5) percentage of the total [^3H]-purines released”; the “Hypoxanthine, radioactivity released in the culture medium” value was determined as 3.41 ± 0.20 cpm × 10^3. The “Inosine, radioactivity released in the culture medium” value in the experiment with rat cultured astrocytes (300 μM, 1 hour) is on record as 4.64 ± 0.51 cpm × 10^3. For the same compound, in the experiment with rat cultured astrocytes (300 μM, 3 hours), the “ADP, proportional release” value was “(4.0 ± 0.6) percentage of the total [^3H]-purines released”; the “ADP, radioactivity released in the culture medium” value stood at 0.50 ± 0.07 cpm × 10^3; the “AMP, proportional release” value is “(11.9 ± 1.0) percentage of the total [^3H]-purines released”; the “AMP, radioactivity released in the culture medium” value is recorded as 1.37 ± 0.14 cpm × 10^3. Further, in the experiment with rat cultured astrocytes (300 μM, 3 hours), the “ATP, proportional release” value was “(3.1 ± 0.32) percentage of the total [^3H]-purines released”; the “ATP, radioactivity released in the culture medium” value is reported as 0.39 ± 0.04 cpm × 10^3; the “Adenosine, proportional release” value is “(9.3 ± 0.9) percentage of the total [^3H]-purines released”; the “Adenosine, radioactivity released in the culture medium” value came out at 1.16 ± 0.15 cpm × 10^3. Moreover, in the experiment with rat cultured astrocytes (300 μM, 3 hours), the “Hypoxanthine, proportional release” value is “(26.3 ± 2.7) percentage of the total [^3H]-purines released”; the “Hypoxanthine, radioactivity released in the culture medium” value was 3.29 ± 0.34 cpm × 10^3; the “Inosine, proportional release” value was “(3.25 ± 3.3) percentage of the total [^3H]-purines released”; the “Inosine, radioactivity released in the culture medium” value was found to be 4.09 ± 0.41 cpm × 10^3.
